Literature values as cited in US20180133151A1, “NEBULIZED TIOTROPIUM” (GLENMARK SPECIALTY S.A., priority 2016, published 2018).

In the case of `C[N+]1(C)C2CC(OC(=O)C(O)(c3cccs3)c3cccs3)CC1C1OC12` (stereo not drawn) [Tiotropium bromide, (1+,2β,4β,7β)-7-[(hydroxydi-2-thienylacetyl)oxy]-9,9-dimethyl-3-oxa-9-azoniatricyclo[3.3.1.02,4]nonane bromide], the Solubility in methanol (methanol) is given as “soluble” and the Solubility in water (water) is given as “sparingly soluble”.
